In patent US11339144B2 (Navitor Pharmaceuticals, Inc., priority 2017, dated 2022):
pIC50: −log10 of the molar value.

Tests used:
[1] = target: HA-GST-Rheb (GTP-γ-S loaded) activating mTORC1 (Homo sapiens (Human), UniProt Q15382); experiment: Rheb-dependent in vitro kinase assay (Rheb-IVK; LanthaScreen or Western readout); type: biochemical; conditions: Rheb-dependent in vitro kinase assay; read-out: IVK IC50
Rheb = Rheb (Homo sapiens (Human), UniProt Q15382); experiment: Affinity Selection Mass Spectrometry (ASMS); type: binding; conditions: affinity (R3/R0) in Affinity Selection Mass Spectrometry assay
Procedure: Method 2 (Affinity Selection Mass Spectrometry
Protein: Rheb (19 KDa) in the following buffer: 20 mM Tris, pH 8.0, 200 mM NaCl, 2 mM DTT, 5 mM MgCl2 was prepared as under.
Human Rheb protein (I-169) was purified from BL21 (DE3) E. coli using a His-Smt-Rheb expression vector. The cell paste was lysed in lysis buffer (50 mM HEPES pH 7.5, 0.5 M NaCl, 5% Glycerol, 1% CHAPS, EDTA free protease inhibitor tablets, lysozyme to 1 mg/mL, benzonase 250U), sonicated, and purified on a HiTrap Ni Chelating Column (GE Healthcare) using the following buffer: 50 mM HEPES pH 7.5, 0.5 M NaCl, 5% Glycerol, and imidazole increasing in concentration from 5 mM to 500 mM. The His-Smt tag was cleaved using a U1p1 enzyme and dialyzed into 50 mM HEPES pH 7.5, 0.5 M NaCl, 5% Glycerol. The resultant protein was again purified on a Ni Chelating column to remove the U1p1 enzyme and His-Smt tag and then purified by size exclusion chromatography on a Sephacryl S-100 26/60 column into the following final buffer: 20 mM NaPhos pH 7.0, 100 mM NaCl, 5 mM MgCl2, 2 mM TCEP.
Concentrations: 60 μM Rheb, 180 μM GDP and 2 μM of each compound,
Ultrafiltration Filter (Sartorius, Germany) MW cutoff: 10 KDa
• (a) Sample preparation: Prepare sample for each group in 1.5 mL microcentrifuge tube according to the experimental design, total volume 550 μL. In a standard ASMS experiment there are two groups: Protein plus (P+L+) and protein minus (P−L+). • (b) Transfer 50 μL from the 550 μL to a vial as R0 sample. Incubate the rest solution for 30 min at room temperature. Then transfer the 500 μL into an ultrafiltration filter tube and centrifuge at 12×10^3 rpm for ˜10 min, leave about 50 μL solution (otherwise adjust this time). • (c) Add incubation buffer to the ultrafiltration filter tube to about 500 μL. Stir gently and centrifuge mixtures as above, leave about 50 μL solution. • (d) Repeat the step c. Transfer the remaining 50 μL upper layer solution to a new vial as R^3 sample. Sample Extraction: Add 150 μL MeCN to denature the protein completely. Centrifuge at 12×10^3 rpm for 5 min. Transfer the supernatant into LC-MS auto sampler vials for LC-MS analysis (5 uL injection).
Waters Acquity UPLC system, Waters ACQUITY UPLC BEH C18 column (2.1×50 mm, 1.7 μM); Mobile phase A: 0.1% formic acid solution, B: MeCN; 0.3 mL/min, 5 μL injection, gradient elution (Table 5).
Waters Synapt G1 Q-TOF system, positive or negative ion scan modes; Capillary voltage: 3.0 kV; Method: MSE; Mass range: m/z=100-1000; Source temperature: 120° C.; Desolvation temperature: 400° C.; Collision voltage: 35 V; Sampling Cone: 35 V; Extraction Cone: 4.0 V; Cone Gas: 50 L/h; Desolvation Gas: 800 L/h.

Chain of HA-GST-Rheb (GTP-γ-S loaded) activating mTORC1 (Q15382 1-181): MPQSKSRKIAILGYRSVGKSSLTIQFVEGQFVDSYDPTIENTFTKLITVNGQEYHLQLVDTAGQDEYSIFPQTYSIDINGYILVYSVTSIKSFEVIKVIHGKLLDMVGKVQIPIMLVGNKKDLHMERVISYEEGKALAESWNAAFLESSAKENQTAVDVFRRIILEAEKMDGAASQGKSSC
Chain of Rheb (Q15382 1-169 limits assumed): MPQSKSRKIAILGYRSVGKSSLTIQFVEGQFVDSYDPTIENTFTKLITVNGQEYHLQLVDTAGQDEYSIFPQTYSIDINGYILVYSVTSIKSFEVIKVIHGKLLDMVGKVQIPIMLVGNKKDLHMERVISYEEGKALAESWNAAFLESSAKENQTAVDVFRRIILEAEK

## OCc1cc2c(Oc3cccc(Cl)c3)cccc2[nH]1 [I-275, (4-(3-chlorophenoxy)-1H-indol-2-yl)methanol]
[1]
  pIC50: 3.52 to 4.00
Rheb
  ASMS (R3/R0): C (an affinity (R3/R0)<20%)

## OCc1nc2c(OC[C@H]3CCCC[C@@H]3O)c(Cl)c(Cl)cc2[nH]1 (single isomer, unassigned) [I-388]
[1]
  pIC50: 4.00 to 5.00
Rheb
  ASMS (R3/R0): B (an affinity (R3/R0) between 100% and 20%)

## CC(C)(C)OC(=O)c1ccc(Cn2c(C(=O)O)cc3c(Br)cc(Sc4ccc(Cl)c(Cl)c4)cc32)cc1 [I-109, 4-Bromo-1-(4-(tert-butoxycarbonyl)benzyl)-6-(3,4-dichlorophenylthio)-1H-indole-2-carboxylic acid]
[1]
  pIC50: 4.00 to 5.00
Rheb
  ASMS (R3/R0): B (an affinity (R3/R0) between 100% and 20%)

## CN1CCN(c2cccc(-c3nc4cc(Cl)c(Cl)cc4[nH]3)c2)CC1 [I-367]
[1]
  pIC50: < 4.00
Rheb
  ASMS (R3/R0): B (an affinity (R3/R0) between 100% and 20%)

## COc1ccc(COc2cc3nc(CO)[nH]c3c(Cl)c2Cl)cc1 [I-328]
[1]
  pIC50: < 4.00
Rheb
  ASMS (R3/R0): B (an affinity (R3/R0) between 100% and 20%)

## C=Cc1nc2c(OCC3CCCCC3)c(Cl)c(Cl)cc2[nH]1 [I-345]
[1]
  pIC50: < 4.00
Rheb
  ASMS (R3/R0): B (an affinity (R3/R0) between 100% and 20%)

## C[Si](C)(C)CC(O)c1cc2c(Oc3ccccc3)cc(Cl)cc2[nH]1 (centres unmarked) [I-159, 1-(6-chloro-4-phenoxy-1H-indol-2-yl)-2-(trimethylsilyl)ethanol]
[1]
  pIC50: 4.00 to 5.00
Rheb
  ASMS (R3/R0): C (an affinity (R3/R0)<20%)

## CN(C)C(=O)c1ccc(Cn2c(C(=O)O)cc3c(C4CC4)cc(Sc4ccc(Cl)c(Cl)c4)cc32)cc1 [I-10, 4-cyclopropyl-6-(3,4-dichlorophenylthio)-1-(4-(dimethylcarbamoyl)benzyl)-1H-indole-2-carboxylic acid]
[1]
  pIC50: > 5.00
Rheb
  ASMS (R3/R0): A (an affinity (R3/R0)>100%)

## OCc1cc2c(Sc3ccc4ccccc4c3)cc(Cl)cc2[nH]1 [I-134, (6-chloro-4-(naphthalen-2-ylthio)-1H-indol-2-yl)methanol]
[1]
  pIC50: 4.00 to 5.00
Rheb
  ASMS (R3/R0): B (an affinity (R3/R0) between 100% and 20%)

## CN1CCC(CCNC(=O)c2cc3c(-c4cc(Cl)cc(Cl)c4)cc(Cl)cc3[nH]2)CC1 [I-31]
[1]
  pIC50: < 4.00
Rheb
  ASMS (R3/R0): A (an affinity (R3/R0)>100%)

## CN1CCC(NC(=O)c2cc3c(Sc4ccc(Cl)cc4Cl)cc(Cl)cc3[nH]2)CC1 [I-114]
[1]
  pIC50: < 4.00
Rheb
  ASMS (R3/R0): B (an affinity (R3/R0) between 100% and 20%)

## CN(C)C(=O)c1ccc(Cn2c(C(=O)O)cc3c(SCCc4ccc(Cl)c(Cl)c4)cc(SCCc4ccc(Cl)c(Cl)c4)cc32)cc1 [I-16, 4,6-bis(3,4-dichlorophenethylthio)-1-(4-(dimethylcarbamoyl)benzyl)-1H-indole-2-carboxylic acid]
[1]
  pIC50: > 5.00
Rheb
  ASMS (R3/R0): B (an affinity (R3/R0) between 100% and 20%)

## N#Cc1ccc(Cn2ccc3c(Sc4ccc(Cl)cc4Cl)cccc32)cc1 [I-160]
[1]
  pIC50: < 4.00
Rheb
  ASMS (R3/R0): C (an affinity (R3/R0)<20%)

## Clc1ccc(Oc2cc(Cl)cc3[nH]ccc23)cc1 [I-204, 6-chloro-4-(4-chlorophenoxy)-1H-indole]
[1]
  pIC50: 4.00 to 5.00
Rheb
  ASMS (R3/R0): C (an affinity (R3/R0)<20%)

## Clc1ccc(Oc2cccc3[nH]ccc23)c(Cl)c1 [I-255, 4-(2,4-Dichlorophenoxy)-1H-indole]
[1]
  pIC50: 4.00 to 5.00
Rheb
  ASMS (R3/R0): B (an affinity (R3/R0) between 100% and 20%)

## Nc1ccc(-c2nc3cc(Cl)c(Cl)cc3[nH]2)cc1 [I-360]
[1]
  pIC50: < 4.00
Rheb
  ASMS (R3/R0): B (an affinity (R3/R0) between 100% and 20%)

## Cn1ccc2c(Sc3ccc(Cl)cc3)cccc21 [I-222]
[1]
  pIC50: < 4.00
Rheb
  ASMS (R3/R0): B (an affinity (R3/R0) between 100% and 20%)

## NCCn1c(CO)cc2c(Oc3ccccc3)cc(Cl)cc21 [I-168]
[1]
  pIC50: < 4.00
Rheb
  ASMS (R3/R0): C (an affinity (R3/R0)<20%)

## COc1cccc(CCNC(=O)c2cc3c(Sc4ccc(Cl)cc4)cc(Cl)cc3[nH]2)c1 [I-144]
[1]
  pIC50: < 4.00
Rheb
  ASMS (R3/R0): B (an affinity (R3/R0) between 100% and 20%)

## O=C(O)c1cc2c(Br)cc(Sc3ccc(Cl)c(Cl)c3)cc2n1Cc1ccc(C(=O)N(CCO)CCO)cc1 [I-50, 1-(4-(bis(2-hydroxyethyl)carbamoyl)benzyl)-4-bromo-6-(3,4-dichlorophenylthio)-1H-indole-2-carboxylic acid]
[1]
  pIC50: > 5.00
Rheb
  ASMS (R3/R0): B (an affinity (R3/R0) between 100% and 20%)

## O=C(NCC1CCN(Cc2ccccc2)C1)c1cc2c(Sc3ccc(Cl)cc3)cc(Cl)cc2[nH]1 (centres unmarked) [I-136]
[1]
  pIC50: < 4.00
Rheb
  ASMS (R3/R0): A (an affinity (R3/R0)>100%)

## O=[N+]([O-])c1ccc(COc2cc3nc(CO)[nH]c3c(Cl)c2Cl)cc1 [I-329, (6,7-dichloro-5-(4-nitrobenzyloxy)-1H-benzo[d]imidazol-2-yl)methanol]
[1]
  pIC50: 4.00 to 5.00
Rheb
  ASMS (R3/R0): A (an affinity (R3/R0)>100%)

## O=C(O)c1cc2c(Sc3ccc(F)cc3)cc(Cl)cc2[nH]1 [I-156, 6-chloro-4-(4-fluorophenylthio)-1H-indole-2-carboxylic acid]
[1]
  pIC50: 4.00 to 5.00
Rheb
  ASMS (R3/R0): B (an affinity (R3/R0) between 100% and 20%)

## CN1CCC(CCNC(=O)c2ccc(-c3nc4cc(Cl)c(Cl)cc4[nH]3)cc2)CC1 [I-362]
[1]
  pIC50: < 4.00
Rheb
  ASMS (R3/R0): A (an affinity (R3/R0)>100%)

## CN1CC(NC(=O)c2cc3c(Sc4ccc(Cl)cc4)cc(Cl)cc3[nH]2)C1 [I-71, 6-chloro-4-(4-chlorophenylthio)-N-(1-methylazetidin-3-yl)-1H-indole-2-carboxamide]
[1]
  pIC50: > 5.00
Rheb
  ASMS (R3/R0): B (an affinity (R3/R0) between 100% and 20%)

## CC(O)c1cc2c(Oc3ccccc3)cc(Cl)cc2[nH]1 (centres unmarked) [I-186, 1-(6-Chloro-4-phenoxy-1H-indol-2-yl)ethanol]
[1]
  pIC50: 4.00 to 5.00
Rheb
  ASMS (R3/R0): B (an affinity (R3/R0) between 100% and 20%)

## CN(C)C(=O)c1ccc(Cn2c(C(=O)O)cc3c(Br)nc(Sc4ccc(Cl)c(Cl)c4)cc32)cc1 [I-3, 4-bromo-6-(3,4-dichlorophenylthio)-1-(4-(dimethylcarbamoyl)benzyl)-1H-pyrrolo[3,2-c]pyridine-2-carboxylic acid]
[1]
  pIC50: 4.00 to 5.00
Rheb
  ASMS (R3/R0): B (an affinity (R3/R0) between 100% and 20%)

## Clc1ccc(Sc2cc(Cl)cc3[nH]ccc23)cc1 [I-180, 6-chloro-4-(4-chlorophenylthio)-1H-indole]
[1]
  pIC50: 4.00 to 5.00
Rheb
  ASMS (R3/R0): B (an affinity (R3/R0) between 100% and 20%)

## Clc1cccc(Sc2cccc3[nH]ccc23)c1 [I-243, 4-(3-chlorophenylthio)-1H-indole]
[1]
  pIC50: 4.00 to 5.00
Rheb
  ASMS (R3/R0): B (an affinity (R3/R0) between 100% and 20%)

## CN1CCN(C(=O)c2ccc(Cn3c(C(=O)O)cc4c(Br)cc(Sc5ccc(Cl)c(Cl)c5)cc43)cc2)CC1 [I-52, 4-bromo-6-(3,4-dichlorophenylthio)-1-(4-(4-methylpiperazine-1-carbonyl)benzyl)-1H-indole-2-carboxylic acid]
[1]
  pIC50: 4.00 to 5.00
Rheb
  ASMS (R3/R0): B (an affinity (R3/R0) between 100% and 20%)

## CN1CCC[C@@H]1CNC(=O)c1cc2c(Br)cc(Sc3ccc(Cl)c(Cl)c3)cc2[nH]1 [I-57]
[1]
  pIC50: < 4.00
Rheb
  ASMS (R3/R0): A (an affinity (R3/R0)>100%)

## OCCCc1cc2c(Oc3ccccc3)c(Cl)ccc2[nH]1 [I-248, 3-(5-chloro-4-phenoxy-1H-indol-2-yl)propan-1-ol]
[1]
  pIC50: 4.00 to 5.00
Rheb
  ASMS (R3/R0): C (an affinity (R3/R0)<20%)

## CN1CC(NC(=O)c2cc3c(-c4cc(Cl)cc(Cl)c4)cc(Cl)cc3[nH]2)C1 [I-26]
[1]
  pIC50: < 4.00
Rheb
  ASMS (R3/R0): B (an affinity (R3/R0) between 100% and 20%)

## CN1CCCN(c2ccc(NC(=O)c3cc4c(Sc5ccc(Cl)cc5Cl)cc(Cl)c(Cl)c4[nH]3)cc2F)CC1 [I-32, 6,7-dichloro-4-(2,4-dichlorophenyl)sulfanyl-N-[3-fluoro-4-(4-methyl-1,4-diazepan-1-yl)phenyl]-1H-indole-2-carboxamide]
[1]
  pIC50: > 5.00
Rheb
  ASMS (R3/R0): A (an affinity (R3/R0)>100%)
